In patent US20140329863A1 (priority 2011, published 2014):

System: not given
Assay: not given
Details: not given
In the case of `COc1ccc(-c2csc(Nc3cccnc3)n2)cc1OC` [compound 7, [4-(3,4-dimethoxyphenyl)-thiazol-2-yl]pyridin-3-yl-amine], the melting point is reported as 251 to 254 °C.
Compound `Cc1ccc(Nc2nc(C)cs2)nc1` [compound 29, (5-Methylpyridin-2-yl)-(4-methylthiazol-2-yl)-amine] has a melting point of 212 to 214 °C.
Compound `COc1ccc(-c2csc(Nc3cc4ccccc4cn3)n2)cc1` [compound 30, Isoquinolin-3-yl-[4-(4-methoxyphenyl)-thiazol-2-yl]-amine] has a melting point of 224 to 228 °C.
`FC(F)(F)Oc1ccc(-c2csc(Nc3cc4ccccc4cn3)n2)cc1` [compound 31, Isoquinolin-3-yl-[4-(4-trifluoromethoxyphenyl)-thiazol-2-yl]-amine] showed a melting point of 269 to 271 °C.
`Cc1csc(Nc2cc3ccccc3cn2)n1` [compound 36, Isoquinolin-3-yl-(4-methylthiazol-2-yl)-amine] gave a melting point of 212 to 215 °C.

System: PrP^Sc in dividing ScN2a-c13 cells
Assay: not given
Details: dividing ScN2a-c13 cells
For `Cc1ccc(Nc2nc(C)cs2)nc1` [compound 29, (5-Methylpyridin-2-yl)-(4-methylthiazol-2-yl)-amine], the “antiprion activity (in words)” value was “inactive”.
In the case of `FC(F)(F)Oc1ccc(-c2csc(Nc3cc4ccccc4cn3)n2)cc1` [compound 31, Isoquinolin-3-yl-[4-(4-trifluoromethoxyphenyl)-thiazol-2-yl]-amine], the “antiprion activity (in words)” value is reported as “inactive”.
For `Cc1csc(Nc2cc3ccccc3cn2)n1` [compound 36, Isoquinolin-3-yl-(4-methylthiazol-2-yl)-amine], the “antiprion activity (in words)” value was “inactive”.

Same assay, conditions: read-out: EC50 (ELISA), reduction of PrP^Sc load; dividing ScN2a-c13 cells
Compound `COc1ccc(-c2csc(Nc3cccnc3)n2)cc1OC` [compound 7, [4-(3,4-dimethoxyphenyl)-thiazol-2-yl]pyridin-3-yl-amine] has an EC50 of 1.22 µM.
Work on `COc1ccc(-c2csc(Nc3cc4ccccc4cn3)n2)cc1` [compound 30, Isoquinolin-3-yl-[4-(4-methoxyphenyl)-thiazol-2-yl]-amine] yielded an EC50 of 0.34 µM.

System: PrP^Sc in nondividing ScN2a-cl3 cells
Assay: not given
Format: cell-based, mouse
Details: read-out: Non-Dividing ELISA EC50 (μM) Mean (n = 3); ScN2a-c13 non-dividing cells; mean n = 3
Compound `COc1ccc(-c2csc(Nc3cccnc3)n2)cc1OC` [compound 7, [4-(3,4-dimethoxyphenyl)-thiazol-2-yl]pyridin-3-yl-amine] has an EC50 of over 32 µM.
`Cc1ccc(Nc2nc(C)cs2)nc1` [compound 29, (5-Methylpyridin-2-yl)-(4-methylthiazol-2-yl)-amine] gave an EC50 of over 32 µM.
Compound `COc1ccc(-c2csc(Nc3cc4ccccc4cn3)n2)cc1` [compound 30, Isoquinolin-3-yl-[4-(4-methoxyphenyl)-thiazol-2-yl]-amine] has an EC50 of over 32 µM.
`FC(F)(F)Oc1ccc(-c2csc(Nc3cc4ccccc4cn3)n2)cc1` [compound 31, Isoquinolin-3-yl-[4-(4-trifluoromethoxyphenyl)-thiazol-2-yl]-amine] gave an EC50 of over 32 µM.
`Cc1csc(Nc2cc3ccccc3cn2)n1` [compound 36, Isoquinolin-3-yl-(4-methylthiazol-2-yl)-amine] gave an EC50 of over 32 µM.

System: PrP^Sc in dividing ScN2a-cl3 cells
Assay: not given
Format: cell-based, mouse
Set-up: Dividing ELISA pEC50 (μM) 1st Expt. / Dividing ELISA pEC50 (μM) 2nd Expt. / Dividing ELISA pEC50 (μM) 3rd Expt. / Dividing ELISA pEC50 (μM) Mean: unit not given here
Details: ScN2a-cl3 dividing cells; 1st determination
For `COc1ccc(-c2csc(Nc3cccnc3)n2)cc1OC` [compound 7, [4-(3,4-dimethoxyphenyl)-thiazol-2-yl]pyridin-3-yl-amine], the “Dividing ELISA pEC50 (μM) 1st Expt.” value was 5.85.
With `Cc1ccc(Nc2nc(C)cs2)nc1` [compound 29, (5-Methylpyridin-2-yl)-(4-methylthiazol-2-yl)-amine] the “Dividing ELISA pEC50 (μM) 1st Expt.” value was over 4.5.
For `COc1ccc(-c2csc(Nc3cc4ccccc4cn3)n2)cc1` [compound 30, Isoquinolin-3-yl-[4-(4-methoxyphenyl)-thiazol-2-yl]-amine], the “Dividing ELISA pEC50 (μM) 1st Expt.” value was 6.65.
In the case of `FC(F)(F)Oc1ccc(-c2csc(Nc3cc4ccccc4cn3)n2)cc1` [compound 31, Isoquinolin-3-yl-[4-(4-trifluoromethoxyphenyl)-thiazol-2-yl]-amine], the “Dividing ELISA pEC50 (μM) 1st Expt.” value is reported as over 4.5.
With `Cc1csc(Nc2cc3ccccc3cn2)n1` [compound 36, Isoquinolin-3-yl-(4-methylthiazol-2-yl)-amine] the “Dividing ELISA pEC50 (μM) 1st Expt.” value was over 4.5.

Same assay, conditions: ScN2a-cl3 dividing cells; 2nd determination
With `COc1ccc(-c2csc(Nc3cccnc3)n2)cc1OC` [compound 7, [4-(3,4-dimethoxyphenyl)-thiazol-2-yl]pyridin-3-yl-amine] the “Dividing ELISA pEC50 (μM) 2nd Expt.” value was 5.94.
In the case of `Cc1ccc(Nc2nc(C)cs2)nc1` [compound 29, (5-Methylpyridin-2-yl)-(4-methylthiazol-2-yl)-amine], the “Dividing ELISA pEC50 (μM) 2nd Expt.” value is reported as over 4.5.
For `COc1ccc(-c2csc(Nc3cc4ccccc4cn3)n2)cc1` [compound 30, Isoquinolin-3-yl-[4-(4-methoxyphenyl)-thiazol-2-yl]-amine], the “Dividing ELISA pEC50 (μM) 2nd Expt.” value was 6.41.
For `FC(F)(F)Oc1ccc(-c2csc(Nc3cc4ccccc4cn3)n2)cc1` [compound 31, Isoquinolin-3-yl-[4-(4-trifluoromethoxyphenyl)-thiazol-2-yl]-amine], the “Dividing ELISA pEC50 (μM) 2nd Expt.” value was over 4.5.
For `Cc1csc(Nc2cc3ccccc3cn2)n1` [compound 36, Isoquinolin-3-yl-(4-methylthiazol-2-yl)-amine], the “Dividing ELISA pEC50 (μM) 2nd Expt.” value was over 4.5.

Same assay, conditions: ScN2a-cl3 dividing cells; 3rd determination
For `COc1ccc(-c2csc(Nc3cccnc3)n2)cc1OC` [compound 7, [4-(3,4-dimethoxyphenyl)-thiazol-2-yl]pyridin-3-yl-amine], the “Dividing ELISA pEC50 (μM) 3rd Expt.” value was 5.96.
For `Cc1ccc(Nc2nc(C)cs2)nc1` [compound 29, (5-Methylpyridin-2-yl)-(4-methylthiazol-2-yl)-amine], the “Dividing ELISA pEC50 (μM) 3rd Expt.” value was over 4.5.
For `COc1ccc(-c2csc(Nc3cc4ccccc4cn3)n2)cc1` [compound 30, Isoquinolin-3-yl-[4-(4-methoxyphenyl)-thiazol-2-yl]-amine], the “Dividing ELISA pEC50 (μM) 3rd Expt.” value was 6.38.
With `FC(F)(F)Oc1ccc(-c2csc(Nc3cc4ccccc4cn3)n2)cc1` [compound 31, Isoquinolin-3-yl-[4-(4-trifluoromethoxyphenyl)-thiazol-2-yl]-amine] the “Dividing ELISA pEC50 (μM) 3rd Expt.” value was over 4.5.
For `Cc1csc(Nc2cc3ccccc3cn2)n1` [compound 36, Isoquinolin-3-yl-(4-methylthiazol-2-yl)-amine], the “Dividing ELISA pEC50 (μM) 3rd Expt.” value was over 4.5.

Same assay, conditions: ScN2a-cl3 dividing cells; mean of three determinations
For `COc1ccc(-c2csc(Nc3cccnc3)n2)cc1OC` [compound 7, [4-(3,4-dimethoxyphenyl)-thiazol-2-yl]pyridin-3-yl-amine], the “Dividing ELISA pEC50 (μM) Mean” value was 5.92.
With `COc1ccc(-c2csc(Nc3cc4ccccc4cn3)n2)cc1` [compound 30, Isoquinolin-3-yl-[4-(4-methoxyphenyl)-thiazol-2-yl]-amine] the “Dividing ELISA pEC50 (μM) Mean” value was 6.48.

Same assay, conditions: read-out: Dividing ELISA EC50 (μM) 1st Expt.; ScN2a-cl3 dividing cells; 1st determination
`COc1ccc(-c2csc(Nc3cccnc3)n2)cc1OC` [compound 7, [4-(3,4-dimethoxyphenyl)-thiazol-2-yl]pyridin-3-yl-amine] showed an EC50 of 1.41 µM.
Work on `Cc1ccc(Nc2nc(C)cs2)nc1` [compound 29, (5-Methylpyridin-2-yl)-(4-methylthiazol-2-yl)-amine] yielded an EC50 of over 32 µM.
`COc1ccc(-c2csc(Nc3cc4ccccc4cn3)n2)cc1` [compound 30, Isoquinolin-3-yl-[4-(4-methoxyphenyl)-thiazol-2-yl]-amine] showed an EC50 of 0.226 µM.
Work on `FC(F)(F)Oc1ccc(-c2csc(Nc3cc4ccccc4cn3)n2)cc1` [compound 31, Isoquinolin-3-yl-[4-(4-trifluoromethoxyphenyl)-thiazol-2-yl]-amine] yielded an EC50 of over 32 µM.
Work on `Cc1csc(Nc2cc3ccccc3cn2)n1` [compound 36, Isoquinolin-3-yl-(4-methylthiazol-2-yl)-amine] yielded an EC50 of over 32 µM.

Same assay, conditions: read-out: Dividing ELISA EC50 (μM) 2nd Expt.; ScN2a-cl3 dividing cells; 2nd determination
With `COc1ccc(-c2csc(Nc3cccnc3)n2)cc1OC` [compound 7, [4-(3,4-dimethoxyphenyl)-thiazol-2-yl]pyridin-3-yl-amine] the EC50 was 1.16 µM.
For `Cc1ccc(Nc2nc(C)cs2)nc1` [compound 29, (5-Methylpyridin-2-yl)-(4-methylthiazol-2-yl)-amine], the EC50 was over 32 µM.
With `COc1ccc(-c2csc(Nc3cc4ccccc4cn3)n2)cc1` [compound 30, Isoquinolin-3-yl-[4-(4-methoxyphenyl)-thiazol-2-yl]-amine] the EC50 was 0.385 µM.
In the case of `FC(F)(F)Oc1ccc(-c2csc(Nc3cc4ccccc4cn3)n2)cc1` [compound 31, Isoquinolin-3-yl-[4-(4-trifluoromethoxyphenyl)-thiazol-2-yl]-amine], the EC50 is reported as over 32 µM.
With `Cc1csc(Nc2cc3ccccc3cn2)n1` [compound 36, Isoquinolin-3-yl-(4-methylthiazol-2-yl)-amine] the EC50 was over 32 µM.

Same assay, conditions: read-out: Dividing ELISA EC50 (μM) 3rd Expt.; ScN2a-cl3 dividing cells; 3rd determination
Work on `COc1ccc(-c2csc(Nc3cccnc3)n2)cc1OC` [compound 7, [4-(3,4-dimethoxyphenyl)-thiazol-2-yl]pyridin-3-yl-amine] yielded an EC50 of 1.1 µM.
Compound `Cc1ccc(Nc2nc(C)cs2)nc1` [compound 29, (5-Methylpyridin-2-yl)-(4-methylthiazol-2-yl)-amine] has an EC50 of over 32 µM.
Work on `COc1ccc(-c2csc(Nc3cc4ccccc4cn3)n2)cc1` [compound 30, Isoquinolin-3-yl-[4-(4-methoxyphenyl)-thiazol-2-yl]-amine] yielded an EC50 of 0.414 µM.
`FC(F)(F)Oc1ccc(-c2csc(Nc3cc4ccccc4cn3)n2)cc1` [compound 31, Isoquinolin-3-yl-[4-(4-trifluoromethoxyphenyl)-thiazol-2-yl]-amine] showed an EC50 of over 32 µM.
`Cc1csc(Nc2cc3ccccc3cn2)n1` [compound 36, Isoquinolin-3-yl-(4-methylthiazol-2-yl)-amine] gave an EC50 of over 32 µM.

Same assay, conditions: read-out: Dividing ELISA EC50 (μM) Mean; ScN2a-cl3 dividing cells; mean of three determinations
With `COc1ccc(-c2csc(Nc3cccnc3)n2)cc1OC` [compound 7, [4-(3,4-dimethoxyphenyl)-thiazol-2-yl]pyridin-3-yl-amine] the EC50 was 1.22 µM.
For `Cc1ccc(Nc2nc(C)cs2)nc1` [compound 29, (5-Methylpyridin-2-yl)-(4-methylthiazol-2-yl)-amine], the EC50 was over 32 µM.
`COc1ccc(-c2csc(Nc3cc4ccccc4cn3)n2)cc1` [compound 30, Isoquinolin-3-yl-[4-(4-methoxyphenyl)-thiazol-2-yl]-amine] gave an EC50 of 0.342 µM.
`FC(F)(F)Oc1ccc(-c2csc(Nc3cc4ccccc4cn3)n2)cc1` [compound 31, Isoquinolin-3-yl-[4-(4-trifluoromethoxyphenyl)-thiazol-2-yl]-amine] gave an EC50 of over 32 µM.
`Cc1csc(Nc2cc3ccccc3cn2)n1` [compound 36, Isoquinolin-3-yl-(4-methylthiazol-2-yl)-amine] showed an EC50 of over 32 µM.

System: N2a-cl3 cells
Assay: cells
Details: Mus musculus, N2a-cl3, read-out: Dividing Calcein EC50 (μM) Mean (n = 3)
`COc1ccc(-c2csc(Nc3cccnc3)n2)cc1OC` [compound 7, [4-(3,4-dimethoxyphenyl)-thiazol-2-yl]pyridin-3-yl-amine] showed an EC50 of over 32 µM.
`Cc1ccc(Nc2nc(C)cs2)nc1` [compound 29, (5-Methylpyridin-2-yl)-(4-methylthiazol-2-yl)-amine] gave an EC50 of over 32 µM.
For `COc1ccc(-c2csc(Nc3cc4ccccc4cn3)n2)cc1` [compound 30, Isoquinolin-3-yl-[4-(4-methoxyphenyl)-thiazol-2-yl]-amine], the EC50 was over 32 µM.
Compound `FC(F)(F)Oc1ccc(-c2csc(Nc3cc4ccccc4cn3)n2)cc1` [compound 31, Isoquinolin-3-yl-[4-(4-trifluoromethoxyphenyl)-thiazol-2-yl]-amine] has an EC50 of over 32 µM.
`Cc1csc(Nc2cc3ccccc3cn2)n1` [compound 36, Isoquinolin-3-yl-(4-methylthiazol-2-yl)-amine] showed an EC50 of over 32 µM.
